From US8183296B2, “Pesticide phenyloxy substituted phenylamidine derivatives” (Bayer Cropscience AG, priority 2005, dated 2012)

How the values were obtained:
[1] = logP by HPLC on reversed-phase column (C 18), EEC Directive 79/831 Annex V.A8; type: physicochemical; conditions: reversed-phase HPLC column (C 18), C 18, 40° C., 0.1% aqueous formic acid and acetonitrile, read-out: logPa
Description: Temperature: 40° C.; Mobile phases: 0.1% aqueous formic acid and acetonitrile; linear gradient from 10% acetonitrile to 90% acetonitrile.
Calibration was carried out using unbranched alkan-2-ones (comprising 3 to 16 carbon atoms) with known logP values (determination of the logP values by the retention times using linear interpolation between two successive alkanones).

[2] = test system: Puccinia recondita f. Sp. tritici; test: In vivo preventive test on Puccinia recondita f. Sp. tritici (wheat brown rust); conditions: topical, 240 h, 1000 ppm of active ingredient, evaluated 10 days after inoculation, read-out: efficacy
Description: In Vivo Preventive Test on Puccinia recondita f. Sp. tritici (Wheat Brown Rust)
(§1) To produce a suitable preparation of active compound, 1 part by weight of active compound is mixed with the stated amounts of solvent and emulsifier, and the concentrate is diluted with water to the desired concentration.
To test for preventive activity, young plants are […]. After the spray coating has dried on, the plants are sprayed with the preparation of active compound at the stated rate of application. The plants remain for 24 hours in an incubation cabinet at 20° C. and a relative atmospheric humidity of 100%.
The plants are placed in a greenhouse at a temperature of approximately 20° C. and a relative atmospheric humidity of approximately 80% to promote the development of rust pustules.
The test is evaluated 10 days after the inoculation. 0% means an efficacy which corresponds to that of the control, while an efficacy of 100% means that no disease is observed.

Podosphaera leucotricha = test: In vivo protective test on Podosphaera leucotricha (apples); conditions: topical, 240 h, 100 ppm of active ingredient, evaluated 10 days after inoculation, read-out: efficacy
Source text: In Vivo Protective Test on Podosphaera leucotricha (Apples) [table] […] To test for protective activity, young plants are sprayed with the preparation of active compound at the stated rate of application. After the spray coating has dried on, the plants are inoculated with an aqueous spore suspension of the causal agent of apple mildew (Podosphaera leucotricha).

Sphaerotheca fuliginea = test: In vivo protective test on Sphaerotheca fuliginea (cucumbers); conditions: Podosphaera fuliginea, topical, 168 h, 100 ppm of active ingredient, evaluated 7 days after inoculation, read-out: efficacy
Description: In Vivo Protective Test on Sahaerotheca fuliginea (Cucumbers)
as §1
To test for protect activity, young plants are sprayed with the preparation of active compound at the stated rate of application. After the spray coating has dried on, the plants are inoculated with an aqueous spore suspension of Sphaerotheca fuliginea. The plants are then placed in a greenhouse at approximately 23° C. and a relative atmospheric humidity of approximately 70%.
(§2) The test is evaluated 7 days after the inoculation. 0% means an efficacy which corresponds to that of the control, while an efficacy of 100% means that no disease is observed.

Alternaria solani = test: In vivo protective test on Alternaria solani (leaf spot of tomato); conditions: topical, 168 h, 500 ppm of active ingredient, evaluated 7 days after inoculation, read-out: efficacy
Description: In Vivo Protective Test on Alternaria solani (Leaf Spot of Tomato)
as §1
To test for protective activity, young plants are sprayed with the preparation of active compound at the stated rate of application. After the spray coating has dried on, the plants are inoculated with an aqueous spore suspension of Alternatia solani. The plants remain for one day in an incubation cabinet at approximately 20° C. and a relative atmospheric humidity of 100%. Then the plants are placed in an incubation cabinet at approximately 20° C. and a relative atmospheric humidity of 96%.
The test is evaluated 7 days after the inoculation. 0% means an efficacy which corresponds to that of the control while an efficacy of 100% means that no disease is observed.

[3] = test system: Erysiphe graminis f.sp. hordei; test: In vivo preventive test on Erysiphe graminis (powdery mildew on barley); conditions: Blumeria graminis, topical, 168 h, 1000 ppm of active ingredient, evaluated 7 days after inoculation, read-out: efficacy
Description: In Vivo Preventive Test on Erysiphe gramini (Powdery Mildew on Barley)
To produce a suitable preparation of active compound, 1 part by weight of active compound or active compound combination is mixed with the stated amounts of solvent and emulsifier, and the concentrate is diluted with water to the desired concentration.
To test for preventive activity, young plants are sprayed with the preparation of active compound or active compound combination at the stated rate of application.
After the spray coating has dried on, the plants are dusted with spores of Erysiphe graminis f.sp. hordei
The plants are placed in a greenhouse at a temperature of approximately 20° C. and a relative atmospheric humidity of approximately 80% to promote the development of mildew pustules.
as §2

[4] = test system: mosquito larvae (Aedes aegypti); test: In vivo protective test on Aedes aegypti (AEDSAE MO); conditions: Aedes aegypti third larvae
Description: In Vivo Protective Test on Aedes aegypti (AEDSAE MO)
To produce a suitable preparation of active compound, 1 part by weight of active compound is mixed with the stated amount of solvent, and the concentrate is diluted with water to the desired concentration.
10 to 20 third mosquito larvae (Aedes aegypti) are added to the well and incubated.
After the specified period of time, mortality in % is determined. 100% means that all of the larvae have been killed; 0% means that none of the larvae have been killed.

[5] = test system: eggs of cotton bollworm (Heliothis virescens); test: In vivo protective test on Heliothis virescens (HELIVI U); conditions: soybean leaf sections infested with Heliothis virescens eggs
Source text: In Vivo Protective Test on Heliothis virescens (HELIVI U)
To produce a suitable preparation of the active compound, 1 part by weight of active compound is mixed with the stated amount of solvent and emulsifier, and the concentrate is dilutes with emulsifier-containing water to the desired concentration.
Soybean (Glycine max.) leaf sections are sprayed with a preparation of the active ingredient of the desired concentration. Once dry, the leaf sections are infested with eggs of cotton bollworm (Heliotis virescens).
After the specified period of time, mortality in % is determined. 100% means that all eggs have been killed and 0% means that none of the eggs have been killed.

Work on CCCN(C)/C=N/c1cc(C)c(Oc2ccc(Br)c(C(C)C)c2)cc1C [Example 17] yielded a chromatographic logP [1] of 2.91, a pest or weed control at 1000 ppm [2] of no less than 70% and a pest or weed control at 100 ppm (Podosphaera leucotricha) of no less than 70%. For the same compound, the pest or weed control at 100 ppm (Sphaerotheca fuliginea) was no less than 70%, the pest or weed control at 500 ppm (Alternaria solani) was no less than 70% and the pest or weed control at 1000 ppm [3] was no less than 70%.

In the case of Cc1cc(Oc2ccc(Br)c(C(C)C)c2)c(C)cc1/N=C/N(C)C(C)C [Example 18], the chromatographic logP [1] is reported as 3.34, the pest or weed control at 1000 ppm [2] is reported as no less than 70% and the pest or weed control at 100 ppm (Podosphaera leucotricha) is reported as no less than 70%. The “activity (mortality of larvae)” value [4] was “good activity”, the “activity (mortality of eggs)” value [5] was “good activity” and the pest or weed control at 100 ppm (Sphaerotheca fuliginea) was no less than 70%. It also gave a pest or weed control at 500 ppm (Alternaria solani) of no less than 70% and a pest or weed control at 1000 ppm [3] of no less than 70%.

CCN(C)/C=N/c1cc(C)c(Oc2ccc(Br)c(C(C)C)c2)cc1C [Example 19] gave a chromatographic logP [1] of 3.04, a pest or weed control at 1000 ppm [2] of no less than 70% and a pest or weed control at 100 ppm (Podosphaera leucotricha) of no less than 70%. For the same compound, the pest or weed control at 100 ppm (Sphaerotheca fuliginea) was no less than 70%, the pest or weed control at 500 ppm (Alternaria solani) was no less than 70% and the pest or weed control at 1000 ppm [3] was no less than 70%.

Compound CCN(C)/C=N/c1cc(Cl)c(Oc2ccc(Cl)c(C(C)C)c2)cc1C [Example 20] has a chromatographic logP [1] of 2.95, a pest or weed control at 1000 ppm [2] of no less than 70% and a pest or weed control at 100 ppm (Podosphaera leucotricha) of no less than 70%. It also gave a pest or weed control at 100 ppm (Sphaerotheca fuliginea) of no less than 70%, a pest or weed control at 500 ppm (Alternaria solani) of no less than 70% and a pest or weed control at 1000 ppm [3] of no less than 70%.

With CCCN(C)/C=N/c1cc(Cl)c(Oc2ccc(Cl)c(C(C)C)c2)cc1C [Example 21] the chromatographic logP [1] was 3.03, the pest or weed control at 1000 ppm [2] was no less than 70% and the pest or weed control at 100 ppm (Podosphaera leucotricha) was no less than 70%. The pest or weed control at 100 ppm (Sphaerotheca fuliginea) was no less than 70%, the pest or weed control at 500 ppm (Alternaria solani) was no less than 70% and the pest or weed control at 1000 ppm [3] was no less than 70%.

For Cc1cc(Oc2ccc(Cl)c(C(C)C)c2)c(Cl)cc1/N=C/N(C)C(C)C [Example 22], the chromatographic logP [1] was 3.17, the pest or weed control at 1000 ppm [2] was no less than 70% and the pest or weed control at 100 ppm (Podosphaera leucotricha) was no less than 70%. For the same compound, the pest or weed control at 100 ppm (Sphaerotheca fuliginea) was no less than 70%, the pest or weed control at 500 ppm (Alternaria solani) was no less than 70% and the pest or weed control at 1000 ppm [3] was no less than 70%.

CCCN(C)/C=N/c1cc(Cl)c(Oc2ccc(Cl)c(C(C)(C)C)c2)cc1C [Example 25] showed a chromatographic logP [1] of 3.27, a pest or weed control at 1000 ppm [2] of no less than 70% and a pest or weed control at 100 ppm (Podosphaera leucotricha) of no less than 70%. The pest or weed control at 100 ppm (Sphaerotheca fuliginea) was no less than 70%, the pest or weed control at 500 ppm (Alternaria solani) was no less than 70% and the pest or weed control at 1000 ppm [3] was no less than 70%.

With CCN(C)/C=N/c1cc(Cl)c(Oc2ccc(Cl)c(C(C)(C)C)c2)cc1C [Example 26] the chromatographic logP [1] was 3.02, the pest or weed control at 1000 ppm [2] was no less than 70% and the pest or weed control at 100 ppm (Podosphaera leucotricha) was no less than 70%. For the same compound, the pest or weed control at 100 ppm (Sphaerotheca fuliginea) was no less than 70%, the pest or weed control at 500 ppm (Alternaria solani) was no less than 70% and the pest or weed control at 1000 ppm [3] was no less than 70%.

For Cc1cc(Oc2ccc(Cl)c(C(C)C)c2)c(C)cc1/N=C/N(C)C(C)C [Example 28], the chromatographic logP [1] was 2.74, the pest or weed control at 1000 ppm [2] was no less than 70% and the pest or weed control at 100 ppm (Podosphaera leucotricha) was no less than 70%. For the same compound, the pest or weed control at 100 ppm (Sphaerotheca fuliginea) was no less than 70%, the pest or weed control at 500 ppm (Alternaria solani) was no less than 70% and the pest or weed control at 1000 ppm [3] was no less than 70%.

For CCN(C)/C=N/c1cc(Cl)c(Oc2ccc(Br)c(C(C)C)c2)cc1C [Example 30], the chromatographic logP [1] was 2.84, the pest or weed control at 1000 ppm [2] was no less than 70% and the pest or weed control at 100 ppm (Podosphaera leucotricha) was no less than 70%. For the same compound, the pest or weed control at 100 ppm (Sphaerotheca fuliginea) was no less than 70%, the pest or weed control at 500 ppm (Alternaria solani) was no less than 70% and the pest or weed control at 1000 ppm [3] was no less than 70%.

In the case of CCc1cc(Oc2cc(C)c(/N=C/N(C)C(C)C)cc2C)ccc1Cl [Example 32], the chromatographic logP [1] is reported as 2.75, the pest or weed control at 1000 ppm [2] is reported as no less than 70% and the pest or weed control at 100 ppm (Podosphaera leucotricha) is reported as no less than 70%. It also gave a pest or weed control at 100 ppm (Sphaerotheca fuliginea) of no less than 70%, a pest or weed control at 500 ppm (Alternaria solani) of no less than 70% and a pest or weed control at 1000 ppm [3] of no less than 70%.
